Measured values from US9487553B2, “Boranophosphate analogues of cyclic nucleotides” (BIOLOG LIFE SCIENCE INSTITUTE FORSCHUNGSLABOR UND …, priority 2011, dated 2016).

Columns and labels:
[1] = system: PDE 1 from bovine heart; assay: Resistance towards phosphodiesterase: incubation with PDE 1 from bovine heart, HPLC
Method: For this purpose 0.1 μmol of Rp-8-bromoadenosine-3′,5′-cyclic boranophosphate (example 1) and Sp-8-bromoadenosine-3′,5′-cyclic boranophosphate […] dissolved in TRIS buffer pH 7.2 containing calcium chloride and calmodulin and incubated with PDE type I from bovine brain (Sigma-Aldrich) at 37° C. Activity of the enzyme was checked by hydrolysis of cyclic AMP. Stability was monitored by HPLC (RP-18, 11 Vol.-% propanol-2, 20 mM TEAF buffer, pH 6.8, 1 ml/min., UV 264 nm). […] This strategy of testing PDE performance was applied accordingly in degradation examples 10 and 11.
Thus, Rp-8-Br-cAMPB (example 1) and Sp-8-Br-cAMPS (Biolog, Bremen/Germany) were incubated with PDE 1 from bovine heart (Sigma-Aldrich) and monitored by HPLC as described above.
Rp-2′-O-Me-cAMPB (example 7) and Sp-2′-O-Me-cAMPS (Biolog, Bremen/Germany).

[2] = target: T1, PDE IV (A4B) (Homo sapiens, UniProt P27815); assay: Stability against PDE IV, HPLC; type: in vitro ADME; conditions: several days
T1 construct: Houslay lab, Glasgow/Scotland (obtained from another laboratory)
Method: Next, stability of the disclosed boranophosphates against PDE IV (A4B, Houslay lab, Glasgow/Scotland) was tested in similar experiments as described above.

[3] = Degradation Example 1: oxidation with hydrogen peroxide, monitored by HPLC; type: physicochemical; conditions: after further addition of 10 μl of 30% H2O2, two hours at RT
Excerpt: In order to check out the stability of the boranophosphates described in this invention towards oxidising conditions in comparison to the corresponding phosphorothioates, 0.1 μmol of the sodium salts of each, Rp-8-bromoadenosine-3′,5′-cyclic boranophosphate (Rp-8-Br-cAMPB, example 1), Sp-8-bromoadenosine-3′,5′-cyclic boranophosphate (Sp-8-Br-cAMPB, example 2), Rp-8-bromoadenosine-3′,5′-cyclic phosphorothioate (Rp-8-Br-cAMPS, Biolog) and Sp-8-bromoadenosine-3′,5′-cyclic phosphorothioate (Sp-8-Br-cAMPS, Biolog) were dissolved in 100 μl of eluent and the mixture was analyzed by HPLC (RP-18, 11% acetonitrile, 20 mM triethylammonium formate buffer, pH 6.1, 1.5 ml/min, UV 258 nm). The following elution profile was recorded: Rp-8-Br-cAMPS (5:13 min.)<Sp-8-Br-cAMPS (7:23 min.)<Sp-8-Br-cAMPB (9:13 min.)<Rp-8-Br-cAMPB ([…].).
Subsequently, aqueous hydrogen peroxide (Merck) was added in small portions while the stability of the four compounds was permanently monitored over time.
10 μl of H2O2 (0.3%) as well as 10 μl of 3% H2O2 were added to no effect.

[4] = target: protein kinase A type I alpha holoenzyme (Homo sapiens, UniProt P10644); assay: Standard photometric (Cook) assay with protein kinase A type I alpha holoenzyme; type: biochemical; conditions: holoenzyme RIα
Excerpt: In a first experiment, the biological activity of the Rp- and Sp-isomer of 8-bromoadenosine-3′,5′-cyclic boranophosphate (examples 1 and 2) has been tested with the holoenzyme of protein kinase A type I alpha (FIGS. 3 and 4) using a standard photometric assay (Cook, P. F.; Neville, M. E., Jr.; Vrana, K. E.; Hartl, F. T. and Roskoski, R., Jr., Biochemistry 21, 5794-5799 (1982)).
As a control, two boranophosphate analogues with a 2′-O-methyl modification (Rp-2′-O-Me-cAMPB and Sp-2′-O-Me-cAMPB, examples 7 & 8) have been tested by the same type of assay with protein kinase A type I alpha as well.
FIG. 5 depicts the activity overview of four different cyclic boranophosphate analogues with protein kinase A type I alpha holoenzyme. 9108: Sp-2′-O-Me-cAMPB; 9109: Rp-2′-O-Me-cAMPB; 9110: Sp-8-Br-cAMPB; 9111: Rp-8-Br-cAMPB; controls: B 001: Rp-8-Br-cAMPS. Control: cAMP. “Cook Assay” with Holoenzyme RIα.

[5] = system: PDE type I from bovine brain; assay: Resistance towards phosphodiesterase: incubation with PDE type I from bovine brain, HPLC
Method: Activity of the enzyme was checked by hydrolysis of cyclic AMP. Stability was monitored by HPLC (RP-18, 11 Vol.-% propanol-2, 20 mM TEAF buffer, pH 6.8, 1 ml/min., UV 264 nm).

protein kinase A type I alpha holoenzyme, sequence (P10644 whole entry): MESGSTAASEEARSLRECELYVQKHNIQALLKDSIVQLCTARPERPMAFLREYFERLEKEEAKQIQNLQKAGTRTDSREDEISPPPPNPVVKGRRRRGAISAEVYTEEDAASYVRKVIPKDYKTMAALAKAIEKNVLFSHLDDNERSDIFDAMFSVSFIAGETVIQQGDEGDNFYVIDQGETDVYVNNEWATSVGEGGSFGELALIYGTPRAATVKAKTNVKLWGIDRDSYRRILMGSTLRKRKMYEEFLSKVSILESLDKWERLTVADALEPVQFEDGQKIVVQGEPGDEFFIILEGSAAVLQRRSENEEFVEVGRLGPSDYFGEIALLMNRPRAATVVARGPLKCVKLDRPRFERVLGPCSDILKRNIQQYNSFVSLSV
T1 sequence (P27815 whole entry): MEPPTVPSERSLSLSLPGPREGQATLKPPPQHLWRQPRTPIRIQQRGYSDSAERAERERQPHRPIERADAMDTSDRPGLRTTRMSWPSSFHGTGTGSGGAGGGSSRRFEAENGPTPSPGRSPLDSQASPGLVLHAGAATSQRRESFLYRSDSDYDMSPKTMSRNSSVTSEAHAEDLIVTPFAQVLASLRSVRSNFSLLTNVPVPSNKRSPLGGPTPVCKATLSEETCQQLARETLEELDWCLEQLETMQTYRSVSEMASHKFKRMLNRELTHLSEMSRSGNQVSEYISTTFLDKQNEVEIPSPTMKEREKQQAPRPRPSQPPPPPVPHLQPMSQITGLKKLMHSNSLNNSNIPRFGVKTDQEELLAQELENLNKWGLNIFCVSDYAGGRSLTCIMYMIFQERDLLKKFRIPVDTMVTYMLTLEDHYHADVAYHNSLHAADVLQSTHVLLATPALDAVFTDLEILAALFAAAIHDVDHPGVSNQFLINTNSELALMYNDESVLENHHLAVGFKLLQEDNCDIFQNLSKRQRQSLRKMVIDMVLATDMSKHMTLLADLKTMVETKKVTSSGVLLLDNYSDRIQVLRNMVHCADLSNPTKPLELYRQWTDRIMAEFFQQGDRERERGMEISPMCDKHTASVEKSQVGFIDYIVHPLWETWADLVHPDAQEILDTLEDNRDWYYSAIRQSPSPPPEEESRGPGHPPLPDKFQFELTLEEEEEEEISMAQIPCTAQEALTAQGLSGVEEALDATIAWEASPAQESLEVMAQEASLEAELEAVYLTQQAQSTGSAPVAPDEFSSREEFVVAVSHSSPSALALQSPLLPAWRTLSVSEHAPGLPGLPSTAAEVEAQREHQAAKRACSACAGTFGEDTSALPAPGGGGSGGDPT

Substance	degradation by PDE [1]	stability against PDE IV [2]	HPLC signal area lost [3]	effect on protein kinase A type I alpha holoenzyme [4]	degradation by PDE [5]
8-Bromoadenosine-3′,5′-cyclic boranophosphate, Rp-isomer [Rp-8-Br-cAMPB]	completely stable	completely stable	35%	agonistic property	
8-Bromoadenosine-3′,5′-cyclic boranophosphate, Sp-isomer [Sp-8-Br-cAMPB]			35%	inhibitory potential	no degradation was detected
